Measurements from the supplement of paper PMC10307832.

Tests used:
Test in all cases: relative viability (nuclei count vs DMSO), 5 days (fraction); higher = more cells survive
Alisertib + Linsitinib = compound: COc1cc(Nc2ncc3c(n2)-c2ccc(Cl)cc2C(c2c(F)cccc2OC)=NC3)ccc1C(=O)O [Alisertib] + C[C@]1(O)C[C@@H](c2nc(-c3ccc4ccc(-c5ccccc5)nc4c3)c3c(N)nccn32)C1 [Linsitinib] (partner 1 µM)
Outline: (§1)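 A single step with final 0.05% Triton X-100, 1% formaldehyde and 1 ug/ml Hoechst fixed the cells and stained nuclei 5 days after treatment. Lung cancer cell lines in 1536-well plates had been treated by pin tool the day after seeding with one drug alone or a fixed anchor-drug dose plus five library-drug doses (not always all listed) in √10 steps, and nuclei were counted on 4× images. Relative viability is the ratio of nuclei in treated wells to nuclei in vehicle wells, taken as the median of duplicate plates.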

Alisertib + Pictilisib = compound: COc1cc(Nc2ncc3c(n2)-c2ccc(Cl)cc2C(c2c(F)cccc2OC)=NC3)ccc1C(=O)O [Alisertib] + CS(=O)(=O)N1CCN(Cc2cc3nc(-c4cccc5[nH]ncc45)nc(N4CCOCC4)c3s2)CC1 [Pictilisib] (partner 1 µM)
Outline: as §1

Alisertib + Alpelisib = compound: COc1cc(Nc2ncc3c(n2)-c2ccc(Cl)cc2C(c2c(F)cccc2OC)=NC3)ccc1C(=O)O [Alisertib] + Cc1nc(NC(=O)N2CCC[C@H]2C(N)=O)sc1-c1ccnc(C(C)(C)C(F)(F)F)c1 [Alpelisib] (partner 2 µM)
Outline: as §1

Alisertib + Decitabine = compound: COc1cc(Nc2ncc3c(n2)-c2ccc(Cl)cc2C(c2c(F)cccc2OC)=NC3)ccc1C(=O)O [Alisertib] + Nc1ncn([C@H]2C[C@H](O)[C@@H](CO)O2)c(=O)n1 [Decitabine] (partner 2 µM)
Outline: as §1

Cell Line	relative viability (Alisertib + Linsitinib; first compound 0.005 µM)	relative viability (Alisertib + Linsitinib; first compound 0.01581 µM)	relative viability (Alisertib + Linsitinib; first compound 0.05 µM)	relative viability (Alisertib + Linsitinib; first compound 0.1581 µM)	relative viability (Alisertib + Linsitinib; first compound 0.5 µM)	relative viability (Alisertib + Pictilisib; first compound 0.005 µM)	relative viability (Alisertib + Pictilisib; first compound 0.01581 µM)	relative viability (Alisertib + Pictilisib; first compound 0.05 µM)	relative viability (Alisertib + Pictilisib; first compound 0.1581 µM)	relative viability (Alisertib + Pictilisib; first compound 0.5 µM)	relative viability (Alisertib + Alpelisib; first compound 0.005 µM)	relative viability (Alisertib + Alpelisib; first compound 0.01581 µM)	relative viability (Alisertib + Alpelisib; first compound 0.05 µM)	relative viability (Alisertib + Alpelisib; first compound 0.1581 µM)	relative viability (Alisertib + Alpelisib; first compound 0.5 µM)	relative viability (Alisertib + Decitabine; first compound 0.005 µM)	relative viability (Alisertib + Decitabine; first compound 0.01581 µM)	relative viability (Alisertib + Decitabine; first compound 0.05 µM)	relative viability (Alisertib + Decitabine; first compound 0.1581 µM)	relative viability (Alisertib + Decitabine; first compound 0.5 µM)
COR-L 105	0.879	0.722	0.682	0.332	0.241	0.44	0.34	0.336	0.264	0.281	0.741	0.849	0.71	0.343	0.245	0.633	0.698	0.481	0.349	0.324
LK-2	0.519	0.454	0.337	0.206	0.175	0.573	0.566	0.314	0.329	0.26	1.08	0.878	0.364	0.299	0.268	0.294	0.321	0.165	0.143	0.127
NCI-H838	0.962	0.845	0.573	0.278	0.202	0.377	0.379	0.274	0.189	0.113	0.904	0.993	0.484	0.315	0.224	0.402	0.334	0.253	0.213	0.198
SK-LU-1	1.07	0.924	0.361	0.324	0.24	0.58	0.386	0.312	0.266	0.209	0.929	0.458	0.286	0.302	0.247	0.58	0.665	0.239	0.307	0.276
NCI-H2023	0.653	0.505	0.355	0.285	0.108	0.193	0.194	0.191	0.128	0.0717	0.571	0.412	0.456	0.351	0.117	0.252	0.193	0.145	0.109	0.0849
NCI-H322M	0.895	0.883	0.435	0.459	0.356	0.497	0.477	0.451	0.321	0.311	0.64	0.794	0.857	0.476	0.303	0.714	0.654	0.482	0.425	0.48
NCI-H1666	0.815	0.812	0.41	0.317	0.253	0.389	0.355	0.227	0.21	0.214	1.05	0.721	0.455	0.268	0.224	0.785	0.63	0.615	0.537	0.441
NCI-H1648																	0.478	0.405	0.279	0.247
NCI-H2087	0.866	0.669	0.276	0.236	0.228	0.791	0.791	0.247	0.166	0.191	0.939	0.816	0.226	0.203	0.171	0.246	0.268	0.149	0.126	0.0842
